Source: US20230293629A1, “METHODS FOR ATTENUATING RELEASE OF INFLAMMATORY MEDIATORS AND PEPTIDES USEFUL THEREIN” (BIOMARCK PHARMACEUTICALS LTD., priority 2006, published 2023)
Where a SMILES comes first, the peptide text is derived from it. Where no end group is shown, it is not given here. The star is where a group is joined. Myristoyl = CCCCCCCCCCCCCC(=O)*

What was measured:
human neutrophils = test: PMA-stimulated MPO release from isolated human neutrophils (TMB assay); assay type: cell-based; details: for MPO activity relative to control as 100%: 30 min after 100 nM PMA, PMA control reference about 275%; for % Inhibition MPO: 100 μM test peptide, two hour incubation with 100 nM PMA, human neutrophils; for increase of human neutrophil MPO release versus control level: 100 nM PMA
Source text: Human neutrophil isolation—These studies were approved by the human studies Institutional Review Board (IRB). Human neutrophils were isolated as previously described (see Takashi S, OkuboY, Horie S. Contribution of CD54 to human eosinophil and neutrophil superoxide production. J Appl Physiol 2001; 91:613-622) with slight modifications. Briefly, heparinized venous blood was obtained from normal healthy volunteers, diluted with RPMI-1640 (Cellgro; Mediatech, Inc., Herndon, VA) at a ratio of 1:1, layered onto a Histopaque (density, 1.077 g/ml; Sigma-Aldrich Co., St. Louis, MO) and centrifuged at 400 g for 20 min at 4° C. The supernatant and mononuclear cells at the interface were carefully removed, and erythrocytes in the sediment were lysed in chilled distilled water. Isolated granulocytes were washed twice with Hanks' balanced salts solution (HBSS) and resuspended in HBSS on ice.
Measurement of released neutrophil MPO activity—For measurement of MPO release, purified human neutrophils suspended in HBSS were aliquoted at 4×10^6 cells/ml in 15 ml tubes and preincubated with either 50 or 100 μM of MANS, RNS, or one of the peptides of invention for 10 min at 37° C. The cells then were stimulated with 100 nM phorbol 12-myristate 13-acetate (PMA) for up to 3 hrs. A control reference (PMA control reference) was established using purified human neutrophils suspended in HBSS aliquoted at 4×10^6 cells/ml in 15 mL tubes and stimulated with 100 nM phorbol 12-myristate 13-acetate (PMA) in the absence of a test peptide for the same time periods. The reaction was terminated by placing the tubes on ice and centrifugation at 400 g for 5 min at 4° C.
MPO activity in the cell supernatant was assayed using tetramethylbenzidine (TMB) based on a previously established technique (Abdel-Latif D, Steward M, Macdonald D L, Francis G A., Dinauer M C, Lacy P. Rac2 is critical for neutrophil primary granule exocytosis. Blood 2004; 104:832-839). Briefly, 100 μL of TMB substrate solution was added to 50 μL of cell supernatants or standard human MPO (EMD Biosciences, Inc., San Diego, CA) in a 96-well microplate followed by incubation at room temperature for 15 min. The reaction was terminated by addition of 50 μL of 1M […] and absorbance was read at 450 nm in a spectrophotometric microplate reader (VERSA max, Molecular Devices, Sunnyvale, CA).
The data presented in the table below represents 100 μM concentration of test peptides and a two hour incubation with 100 nM PMA.

U937 cells = test: PMA-stimulated lysozyme secretion by U937 cells; assay type: cell-based, human; details: for % Inhibition Lysozyme: 50 μM test peptide, two hour incubation with 100 nM PMA, U937 cells
Method: Three types of human leukocyte cell lines, specifically the promyelocytic cell line HL-60 clone 15, the monocytic cell line U937, and the lymphocyte natural killer cell line NK-92 were purchased from American Type Culture Collection (ATCC; Rockville, MD). HL-60 clone 15 cells (ATCC CRL-1964) were maintained in medium consisting of RPMI 1640 with L-glutamine supplemented with 10% heat-inactivated fetal bovine serum (Gibco; Invitrogen Co., Carlsbad, CA), 50 IU/ml penicillin, 50 μg/mL streptomycin, and 25 mM HEPES buffer, pH 7.8, at 37° C. in an atmosphere containing 5% CO2. Final differentiation to an eosinophil-like phenotype was initiated by culturing cells at 5×10^5 cells/ml in the above medium containing 0.5 mM butyric acid (Sigma-Aldrich Co.) for 5 days as previously described (Tiffany H L, Li F, Rosenberg H F. Hyperglycosylation of eosinophil ribonucleases in a promyelocytic leukemia cell line and in differentiated peripheral blood progenitor cells. J Leukoc Biol 1995; 58:49-54; Tiffany H L, Alkhatib G, Combadiere C, Berger E A, Murphy P M. CC chemokine receptors 1 and 3 are differentially regulated by IL-5 during maturation of eosinophilic HL-60 cells. J Immunol 1998; 160:1385-1392). U937 cells (ATCC CRL-1593.2) were grown at 37° C. in an atmosphere of 5% CO2 in complete medium consisting of RPMI 1640 with L-glutamine supplemented with 10% FBS, 50 IU/ml penicillin, and 50 μg/mL streptomycin. NK-92 cells (ATCC CRL-2407) were maintained in alpha-MEM medium (Sigma-Aldrich Co.) supplemented with 20% FBS, 100 U/ml of interleukin-2 (IL-2) (Chemicon International, Inc., Temecula, CA), 5×10^−5 M of 2-mercaptoethanol, 50 IU/mL penicillin, and 50 μg/ml streptomycin at 37° C. in an atmosphere containing 5% CO2. Cell morphology was judged by assessment of Wright-Giemsa-stained cells. Viability of cells harvested for experiments was assessed by trypan blue exclusion and populations of cells with viability >95% were used.
HL-60 clone 15, U937, and NK-92 cells were washed and resuspended at 2.5×10^6 cells/ml in phenol red-free RPMI-1640 (Cellgro; Mediatech, Inc.) for all degranulation assays. Aliquots of cells in 15 ml tubes were preincubated with indicated concentrations of MANS, RNS, or a test peptide for 10 min at 37° C. The cells then were stimulated with PMA for up to 2 hr. A control reference (PMA control reference) was established for each cell type using HL-60 clone 15, U937, and NK-92 cells, respectively, which were washed and resuspended at 2.5×10^6 cells/ml in phenol red-free RPMI-1640 and stimulated with PMA but in the absence of MANS, RNS, or a test peptide for the same time periods. The reaction was terminated by placing tubes on ice and centrifuging cells at 400 g for 5 min at 4° C.
For measurements of released MPO from neutrophils and released lysozyme from U937 cells, we were able to quantify secretion by using as standards human MPO and egg white […], respectively. For released EPO from HL-60 clone 15 cells and for released granzyme from NK-92 cells, no standards were available to use for quantification. […] To measure intracellular EPO in HL-60 clone 15 cells and intracellular granzyme in NK-92 cells, appropriate aliquots of 0.1% triton X-100-lysed cells were taken for quantification of intracellular granule proteins as described below. All treatments were expressed as percentage of control to minimize variability between cultures.
Lysozyme secreted by U937 cells was measured using a spectrophotometric assay as described previously (Balboa M A, Saez Y, Balsinde J. Calcium-independent phospholipase A2 is required for lysozyme secretion in U937 promonocytes. J Immunol 2003; 170:5276-5280) with slight modification. Thus, 100 μL of sample was mixed with 100 μL of a Micrococcus lysodeikticus (Sigma-Aldrich Co.) suspension (0.3 mg/ml in 0.1 M sodium phosphate buffer, pH 7.0) in a 96-well microplate. The decrease in absorbance at 450 nm was measured at room temperature. […]

[1] = any of the time points or concentrations tested

CCCCCCCCCCCCCC(=O)NCC(=O)N[C@@H](C)C(=O)N[C@@H](CCC(N)=O)C(=O)N[C@@H](Cc1ccccc1)C(=O)N[C@@H](CO)C(=O)N[C@@H](CCCCN)C(=O)N[C@H](C(=O)N[C@@H](C)C(=O)N[C@@H](C)C(=O)N[C@@H](CCCCN)C(=O)NCC(=O)N[C@@H](CCC(=O)O)C(=O)N[C@@H](C)C(=O)N[C@@H](C)C(=O)N[C@@H](C)C(=O)N[C@@H](CCC(=O)O)C(=O)N[C@@H](CCCNC(=N)N)C(=O)N1CCC[C@H]1C(=O)NCC(=O)N[C@@H](CCC(=O)O)C(=O)N[C@@H](C)C(=O)N[C@@H](C)C(=O)N[C@H](C(=O)N[C@@H](C)C(=O)O)C(C)C)[C@@H](C)O [MANS] (Myristoyl-GAQFSKTAAKGEAAAERPGEAAVA-OH; C-terminus assumed)
MPO activity relative to control as 100% (human neutrophils; 50 μM): about 275% | reduction in MPO release versus the PMA control reference (human neutrophils; 50 μM, 1 hr): about 15% | MPO activity % of control (human neutrophils; 50 μM, 1 hr, PMA control reference about 340%): about 290% | reduction of MPO release versus the PMA control reference (human neutrophils; 50 μM, 2 hours): approximately 30% | MPO activity % of control (human neutrophils; 50 μM, 2 hours, PMA control reference about 540%): about 375% | reduction of MPO release versus the PMA control reference (human neutrophils; 50 μM, 3 hours): approximately 33% | MPO activity % of control (human neutrophils; 50 μM, 3 hours, PMA control reference about 560%): about 375% | % Inhibition MPO (human neutrophils): 31.2% | MPO activity relative to control as 100% (human neutrophils; 100 μM): about 305% | reduction in MPO release versus the PMA control reference (human neutrophils; 100 μM, 1 hr): about 25% | MPO activity % of control (human neutrophils; 100 μM, 1 hr, PMA control reference about 340%): about 260% | reduction of MPO release versus the PMA control reference (human neutrophils; 100 μM, 2 hours): approximately 45% | MPO activity % of control (human neutrophils; 100 μM, 2 hours, PMA control reference about 540%): about 295% | reduction of MPO release versus the PMA control reference (human neutrophils; 100 μM, 3 hours): approximately 40% | MPO activity % of control (human neutrophils; 100 μM, 3 hours, PMA control reference about 560%): about 320% | effect on PMA-induced MPO release (human neutrophils; 50 and 100 μM, 30 min): no detected effect | reduction in lysozyme secretion relative to the PMA control reference (U937 cells; 10 μM, 1 hour): about 20% | lysozyme secretion relative to control as 100% (U937 cells; 10 μM, 1 hour, PMA control reference about 210%): about 170% | reduction in lysozyme secretion relative to the PMA control reference (U937 cells; 10 μM, 2 hour): about 20% | lysozyme secretion relative to control as 100% (U937 cells; 10 μM, 2 hour, PMA control reference about 240%): about 195% | % Inhibition Lysozyme (U937 cells): 40.8% | reduction in lysozyme secretion relative to the PMA control reference (U937 cells; 50 μM, 1 hour): about 20% | lysozyme secretion relative to control as 100% (U937 cells; 50 μM, 1 hour, PMA control reference about 210%): about 170% | reduction in lysozyme secretion relative to the PMA control reference (U937 cells; 50 μM, 2 hour): about 25% | lysozyme secretion relative to control as 100% (U937 cells; 50 μM, 2 hour, PMA control reference about 240%): about 185% | reduction in lysozyme secretion relative to the PMA control reference (U937 cells; 100 μM, 1 hour): about 45% | lysozyme secretion relative to control as 100% (U937 cells; 100 μM, 1 hour, PMA control reference about 210%): about 115% | reduction in lysozyme secretion relative to the PMA control reference (U937 cells; 100 μM, 2 hour): about 40% | lysozyme secretion relative to control as 100% (U937 cells; 100 μM, 2 hour, PMA control reference about 240%): about 140%

CCCCCCCCCCCCCC(=O)O[C@@H]1[C@@H](C)[C@@]2(O)[C@@H](C=C(CO)C[C@]3(O)C(=O)C(C)=C[C@@H]23)[C@@H]2C(C)(C)[C@]12OC(C)=O [PMA, phorbol 12-myristate 13-acetate]
increase of human neutrophil MPO release versus control level (human neutrophils; 30 min): approximately threefold | increase of human neutrophil MPO release versus control level (human neutrophils; after 3 hrs): 5-6 fold

CCCCCCCCCCCCCC(=O)NCC(=O)N[C@H](C(=O)N[C@@H](C)C(=O)N1CCC[C@H]1C(=O)N[C@@H](C)C(=O)N[C@@H](C)C(=O)N[C@@H](CCC(=O)O)C(=O)NCC(=O)N[C@@H](C)C(=O)NCC(=O)N[C@@H](C)C(=O)N[C@@H](CCC(=O)O)C(=O)N[C@H](C(=O)N[C@@H](CCCCN)C(=O)N[C@@H](CCCNC(=N)N)C(=O)N[C@@H](C)C(=O)N[C@@H](CO)C(=O)N[C@@H](C)C(=O)N[C@@H](CCC(=O)O)C(=O)N[C@@H](C)C(=O)N[C@@H](CCCCN)C(=O)N[C@@H](CCC(N)=O)C(=O)N[C@@H](C)C(=O)N[C@@H](Cc1ccccc1)C(=O)O)C(C)C)[C@@H](C)O [RNS, reference compound] (Myristoyl-GTAPAAEGAGAEVKRASAEAKQAF-OH; C-terminus assumed)
% Inhibition MPO (human neutrophils): 0% | effect on PMA-induced MPO release (human neutrophils; [1]): did not affect | % Inhibition Lysozyme (U937 cells): 0% | effect on PMA-enhanced lysozyme secretion (U937 cells; [1]): did not affect

Ac-GAQFSKTAAK [Ac-GAQFSKTAAK]
% Inhibition MPO (human neutrophils): 25.3% | % Inhibition Lysozyme (U937 cells): 41.2%

Ac-GAQFSKTAAKGEAAAERPGEAAVA
% Inhibition Lysozyme (U937 cells): 39.8%
